# In patent US8034833B2, “Phosphorus binder for treatment of renal disease” (Biolink Life Sciences, Inc., priority 2008, dated 2011):
# Like-named read-outs stand apart in the source and are kept apart here.
# Assays:
# [1] = Solubility in water of cationic phosphate binders (Lange's Handbook); settings: relative hydrophile by solubility in water
# [2] = intravenous administration, cited from earlier work
# [3] = 77 mEq per os; normal subjects; cited from earlier work
# [4] = pH 6.0; Sheikh et al. (Note 2); cited from earlier work
# [5] = hemodialysis or peritoneal dialysis patients; cited from earlier work
# [6] = system: parathyroid hormone (PTH) secretion; settings: maintenance dialysis patients; cited from earlier work
# [7] = cited from earlier work
# [8] = cited from earlier work; remark: listed apart in the source
# [9] = in many patients; cited from earlier work
compound,measurement,setting,value
[O]=[Mg] [Magnesium Oxide],Hydrophile?,[1],No
"C[N+](C)(C)C[C@H](O)CC(=O)[O-] [L-carnitine, L-(−)-Carnitine]","effect on total, LDL and HDL cholesterol",[2],decrease total cholesterol and LDL cholesterol while significantly increasing HDL cholesterol
same,effect on serum phosphate concentrations,[2]; maintenance hemodialysis patients,reduced the serum phosphate concentrations significantly
Magnesium Acetate,Pi absorption,[3],28%
Calcium Gluconate,"Observed in vitro Pi Binding, %",[4],90%
choline magnesium trisalicylate,effect on serum Pi levels,[5],no effect
[Mg+2].[OH-].[OH-] [Magnesium Hydroxide],suppression of parathyroid hormone (PTH) secretion,[6],Neither the combination of oral calcium carbonate/magnesium hydroxide nor magnesium hydroxide alone was effective
same,"serum Mg level, average",[7]; during Mg(OH)2 treatment,4.3 mg/dL
same,serum Pi level,"[7]; human, in vivo",6.1 mg/dL
same,serum Pi level,"[8]; average 734 mg elemental Mg/day, three to five weeks, control (no binders) 9.0 mg/dL",8.1 mg/dL
same,mean serum Mg level,"[8]; average 734 mg elemental Mg/day, dialysate Mg 1.2 to 1.8 mg/dl",4.32 mg/dL
same,patients who developed diarrhea,[8]; nine patients treated,Four of nine
same,severe hyperkalemia,[9],≤ 8 mEq/L
